Results taken from patent US20210206818A1, “MESSENGER RIBONUCLEIC ACIDS FOR THE PRODUCTION OF INTRACELLULAR BINDING POLYPEPTIDES AND METHODS OF USE THEREOF” (ModernaTX, Inc., priority 2016, published 2021).

B1: tBID (77-195): mmRNA encoding a single copy of amino acids 77-195 of the BID protein with FLAG tag; SEQ ID NOs: 292 and 293 (nucleic acid)
DNA: ATGGAAAGTCAAGAAGACATCATCCGGAATATTGCCAGGCACCTCGCCCAGGTCGGGGACAGCATGGACCGTAGCATCCCTCCGGGCCTGGTGAACGGCCTGGCCCTGCAGCTCAGGAACACCAGCCGGTCGGAGGAGGACCGGAACAGGGACCTGGCCACTGCCCTGGAGCAGCTGCTGCAGGCCTACCCTAGAGACATGGAGAAGGAGAAGACCATGCTGGTGCTGGCCCTGCTGCTGGCCAAGAAGGTGGCCAGTCACACGCCGTCCTTGCTCCGTGATGTCTTTCACACAACAGTGAATTTTATTAACCAGAACCTACGCACCTACGTGAGGAGCTTAGCCAGAAATGGGATGGACATGGATTACAAGGACGATGATGACAAG
modifications: mmRNA, FLAG tag; Synthetic: hum.tBID(77-195).FLAG

Key:
MCL1 = assay: Western blotting of MCL1 downregulation in Hep3B cells; assay type: cell-based, human; details: 24 hours, sorafenib at 10 uM
Method: A first series of experiments was conducted to determine whether specific targeting of MCL1 recapitulates sorafenib synergy with SQT-BH3 in cells in vitro.

[1] = system: Hep3B human hepatocellular carcinoma cells; assay: Cell death of Hep3B cells transfected with truncated BID (tBID) mmRNA constructs (CellTiterGlo); assay type: cell-based; details: CellTiterGlo (CTG) assay, varying doses
Source text: One construct encoded a single copy of amino acids 61-195 of the BID protein that includes its BH3 domain (with a FLAG epitope tag). The open reading frame (ORF) amino acid sequence and corresponding nucleotide sequence encoding the ORF a.a. sequence are shown in SEQ ID NOs: 289 and 290, respectively. The sequence for the corresponding construct without the FLAG epitope tag is shown in SEQ ID NO: 291. A second construct encoded a single copy of amino acids 77-195 of the BID protein that includes its BH3 domain (with a FLAG epitope tag). The open reading frame (ORF) amino acid sequence and corresponding nucleotide sequence encoding the ORF a.a. sequence are shown in SEQ ID NOs: 292 and 293, respectively. The sequence for the corresponding construct without the FLAG epitope tag is shown in SEQ ID NO: 294. The open reading frame (ORF) amino acid sequence and corresponding nucleotide sequence encoding the ORF a.a. sequence of a third construct, containing amino acids 61-104 of the BID protein, are shown in SEQ ID NOs: 286 and 287, respectively. The sequence for the corresponding construct without the FLAG epitope tag is shown in SEQ ID NO: 288. […]
Hep3B cells/well were plated in 96 well plates and the cells were transfected with varying doses of the mmRNA constructs. Cell death was measured using the CellTiterGlo (CTG) assay. […]

| Molecule | MCL1 downregulation (Western blotting) (MCL1) | apoptosis of Hep3B cells [1] |
| --- | --- | --- |
| CNC(=O)c1cc(Oc2ccc(NC(=O)Nc3ccc(Cl)c(C(F)(F)F)c3)cc2)ccn1 [sorafenib] | downregulated MCL1 |  |
| B1 |  | induced apoptosis of Hep3B cells |
